Consider one substance from patent US20140308294A1, “Anti-IL-1R1 Inhibitors For Use in Cancer” (MERCK PATENT GMBH, priority 2011, published 2014).

The test system of series [1] is primary CRC CSC-derived xenograft tumors. As to the kind of experiment: CSC-xenograft tumor growth, CRC model in NOD/SCID mice. The class given is in vivo, mouse. As to conditions: 5 or 10 mg daily s.c., 76 days. As to the method: (§1) CSC were FACS-enriched from primary tumor-derived NSCLC and CRC cell line cultures on the basis ALDH activity as determined by the Aldefluor assay. 10^4 cells/mouse were transplanted s.c. in NOD/SCID mice together with Matrigel. A Loading dose of 5 μg/mL Kineret (recombinant […], Amgen) was applied to the Matrigel and subsequent daily treatment s.c. with either 5 or 10 mg Kineret was performed beginning on day 1 post transplantation. Tumor volumes were monitored weekly and three mice from each group were sacrificed at day 76 for the CRC model (A.) and at day 91 for the NSCLC model (B.) for further analysis. For the remaining animals Kineret treatment was stopped and tumor progression was continually monitored. When tumors reached >2000 mm^3 mice were sacrificed. At time of sacrifice serum was collected along for cytokine analysis. A. Tumor growth curves in the CRC tumor model study and B. growth curves in the NSLCL model study. Curves represent mean tumor volume in mm3 from 10 mice/group; error bars are SEM The data shown for each model is representative of n=2 similar experiments.
(§2) Human cell cultures derived from primary tumors obtained from a CRC (FIG. 12A) and a NSCLC (FIG. 12B) patient were sorted for the Aldeflour-positive population using fluorescence activated cell sorting (FACS). […]
(§3) Tumor volume was monitored weekly for 76 days in the CRC model and for 91 days in the NSCLC model.

Series [2] deals with primary NSCLC CSC-derived xenograft tumors. Kind of series: CSC-xenograft tumor growth, NSCLC model in NOD/SCID mice. The class given is in vivo, mouse. As to conditions: 5 or 10 mg daily s.c., 91 days. As to the method: as §1, §2, §3
For another series, the system named is hIL8. Kind of series: Serum hIL8 ELISA in NOD/SCID mice with CSC-xenograft tumors. The class given is in vivo, mouse. As to conditions: CRC day 76 and NSCLC day 91, vs vehicle. On the procedure:
(§4) This analysis was performed on serum collected from the tumor model studies described in FIG. 18. Serum analysis was performed using high-sensitivity ELISA assay kits obtained from R&D systems. A.C. Serum from 3 mice at day 76 (CRC) (blue) and at day 91 (NSCLC) (red) was analyzed for hIL8 and hVEGF serum levels. Results are shown as bar graphs representing the mean cytokine concentration in pg/mL+/−SD from n=3 mice/group.
(§5) Three mice from each study group were sacrificed at day 76 (CRC) or day 91 (NSCLC). The tumors were excised, dissociated into single cells, and viably cryopreserved. Serum was also collected for cytokine detection. For the remaining mice Kineret treatment was stopped and the mice were further monitored for tumor growth. When tumors reached ethical tumor-burden limits the mice were sacrificed and tumor cells and serum were collected. […] From all sacrificed mice we also collected and cryopreserved bone marrow cells from the femur and tibial bones for possible analyses.
(In general: An ELISA detects its analyte on a solid surface through an enzyme-linked reagent.)

Another series has as its system hVEGF. As to the kind of experiment: Serum hVEGF ELISA in NOD/SCID mice with CSC-xenograft tumors. The following applies: CRC day 76 and NSCLC day 91, vs vehicle. The class given is in vivo, mouse. As to the method: as §4, §5
A short description of series [3]: Tolerability in NOD/SCID mice of the xenograft studies. As to conditions: 5 and 10 mg daily s.c. The class given is in vivo.
Excerpt: Human cell cultures derived from primary tumors obtained from a CRC (FIG. 12A) and a NSCLC (FIG. 12B) patient were sorted for the Aldeflour-positive population using fluorescence activated cell sorting (FACS). Aldefluor is a marker of high aldehyde-dehydrogenase activity, which is associated with both normal stem cell and CSC phenotypes. The sorted aldefluor-positive (AF+) cells were suspended in Matrigel and injected subcutaneously at a very low cell number (2×10^4 cells/mouse) into NOD/SCID immune-deficient mice. The matrigel suspensions contained a Kineret loading dose of 5 μg/mL which corresponds to reported serum levels of Kineret after daily s.c. dosing. Starting 1 day after inoculation of the AF+ cells, mice were treated daily with 5 mg or 10 mg of Kineret (purchased from Biovitrum) or the drug vehicle. The administration route was s.c. as is standard for Kineret in the clinic.
as §3

For series [4] the following is noted: in vivo, sc; cited from earlier work.

On to “Kineret: human IL1R-antagonist (IL1RA) marketed under the trade name Kineret, Amgen; approved for rheumatoid arthritis”, for which the “inhibition of tumor growth” value was “strong inhibition at both the 5 and 10 mg doses” in series [1]; “response was only achieved with the higher dose of 10 mg/kg” in series [2]. Moreover, the “hIL-8 levels in mouse serum” value in the series with hIL8 was “reduced to undetectable levels”. In addition, in the series with hVEGF, the “hVEGF levels in mouse serum” value is recorded as “did not alter”. The tolerability result in series [3] is listed as “well tolerated”. Moreover, the “reported serum levels after daily s.c. dosing” value in series [4] is 5 µg/mL.
